Measured values reported in patent US12455279B2, “Personalized immunotherapy for rejuvenating activating and strengthening exhausted and dysfunctional T cells, reducing PD-1, and improving immune function” (priority 2018, dated 2025).
“Also recorded” adds a separate entry of the source.

Legend:
[1] = test system: PD-1 expressing CD3+ normal human T cells; test: PD-1 surface expression on CD3+ T cells of healthy donors after treatment (1, 18, 24 Hr); assay type: cell-based; conditions: for % reduction in % of T cells expressing PD-1: vs untreated
Description: (§1) Peripheral blood lymphocytes (PBLs) were separated from normal human leukocytes of healthy donors by Ficol separation and CD3 positive T cells were separated by anti-CD3 antibody-coupled magnetic beads. The CD3+ T cells were cultured in RPMI 1640 medium supplemented with 10% heat inactivated fetal calf serum (FCS), 1% L-Glutamine, 1% sodium pyruvate, 1% non-essential amino acids, and 1% antibiotics. The cells were usually maintained for, for on average 24 hours after their separation before various molecules were added and their effects on the T cells were measured. […] It was therefore tested if neurotransmitters, neuropeptides, and/or modulators of voltage-gated ion channels can reduce PD-1 on the cell surface of T cells. Such a reduction would allow the T cells to escape the tumor-induced T cell suppression, and the activated T cells could then attach the cancer cells. As such, the expression of PD-1 on the surface of these treated and untreated T cells was monitored. […] Shorter in vitro incubation times are frequently preferable when cells are going to subsequently be returned to a subject, as they end to decrease the risk of an adverse reaction.

[2] = test system: PD-1 expressing large proliferating CD3+ normal human T cells; test: PD-1 expression on large proliferating T cells (FSC/SSC gating), 1 Hr treatment; assay type: cell-based; conditions: 10^−8M; for % reduction in % of large T cells expressing PD-1: vs untreated
Description: as §1
(§2) CD3 positive T cells of patients are a heterogenous mix of different types of T cells. […] Using this FCS and SSC analysis, T cells can be distinguished and separated by size into large proliferating T cells and smaller non-proliferating T cells.

[3] = test system: PD-1 expressing smaller non-proliferating CD3+ normal human T cells; test: PD-1 expression on smaller non-proliferating T cells (FSC/SSC gating), 1 Hr treatment; assay type: cell-based; conditions: 10−8M; for % reduction in % of smaller T cells expressing PD-1: vs untreated
Description: as §1, §2

[4] = test system: CD3+ T cells of liver cancer patients; test: Proliferation / big proliferating T cells / CD25 of CD3+ T cells of liver cancer patients; assay type: cell-based, human; parameters: % big/activated/proliferating T cells: concentration or dose not given beside the values; conditions: for % big/activated/proliferating T cells / Fold increase (big/activated/proliferating T cells): T cells of liver cancer patient one; for % big/activated/proliferating T cells: 60 hours culture; for Fold increase (big/activated/proliferating T cells): vs untreated; for number of T cells present in culture (FIG. 1) / increase in the number of big, proliferating CD3 positive cells (ranking in words): patient one; for number of T cells present in culture (FIG. 1): 60 hours after administration; for increase in the number of big, proliferating CD3 positive cells (ranking in words): flow cytometer
Description: Blood was drawn from two patients suffering from liver cancer, patient one and patient two who both suffer from hepatocellular carcinoma. 15 mLs of blood yielded roughly 2.5×10^7 peripheral blood leucocytes, from which approximately […] positive T cells were isolated. The cells were cultured as described above, and the effects of various molecules and their combinations on those T cells were examined.
Cell proliferation was monitored in culture for 60 hours after administration of the molecule/s (FIG. 1).

Row | Molecule | % of T cells expressing PD-1 ([1]; 1 Hr treatment, 10^−8M) [%] | % reduction in % of T cells expressing PD-1 ([1]; 1 Hr treatment, 10^−8M) [%] | % of T cells expressing PD-1 ([1]; 18 Hr treatment, 10^−7M) [%] | % reduction in % of T cells expressing PD-1 ([1]; 18 Hr treatment, 10^−7M) [%] | % of T cells expressing PD-1 ([1]; 24 Hr treatment, 10^−7M) [%] | % reduction in % of T cells expressing PD-1 ([1]; 24 Hr treatment, 10^−7M) [%] | % of T cells expressing PD-1 ([1]; 24 Hr treatment, 10^−8M) [%] | % reduction in % of T cells expressing PD-1 ([1]; 24 Hr treatment, 10^−8M) [%] | % of large T cells expressing PD-1 [2] [%] | % reduction in % of large T cells expressing PD-1 [2] [%] | % of smaller T cells expressing PD-1 [3] [%] | % reduction in % of smaller T cells expressing PD-1 [3] [%] | % big/activated/proliferating T cells [4] [%] | Fold increase (big/activated/proliferating T cells) [4] | number of T cells present in culture (FIG. 1) [4] | increase in the number of big, proliferating CD3 positive cells (ranking in words) [4] | effect on PD-1 expressing T cells ([1]; incubated for 24 hours) | surface expression of CD25 (FIG. 2D) ([4]; T cells of patient one)
1 | N[C@@H](CCC(=O)O)C(=O)O [Glutamate] | 24.65 | 33 | 23.70 | 31.7 | 15.8 | 22.64 | 16.3 | 20.2 | 13.0 | 39.5 | 32.8 | 25.3 | 24.80 | 5.4-fold | increased the number of T cells present in culture; also recorded: most effective | most effective |  | 
2 | CGRP |  |  |  |  |  |  |  |  | 16.5 | 23.3 | 35.9 | 18.2 | 19.20 | 4.3-fold | increased the number of T cells present in culture |  |  | 
3 | Neuropeptide Y: neuropeptide |  |  |  |  |  |  |  |  |  |  |  |  | 16.40 | 3.6-fold | increased the number of T cells present in culture |  |  | 
4 | NCCc1ccc(O)c(O)c1 [Dopamine] | 30.3 | 17 | 24.90 | 28.40 | 10 | 51.05 | 22.4 | −9.64 | 19.1 | 11.2 | 40.4 | 8.0 | 14 | 3-fold | increased the number of T cells present in culture; also recorded: most effective |  | did not have a positive effect | 
5 | GnRH-II: neuropeptide (peptide, UniProt O43555 24-120, looked up, Progonadoliberin-2, neuropeptide) Progonadoliberin-2: QHWSHGWYPGGKRALSSAQDPQNALRPPGRALDTAAGSPVQTAHGLPSDALAPLDDSMPWEGRTTAQWSLHRKRHLARTLLTAAREPRPAPPSSNKV | 31.6 | 14 |  |  |  |  |  |  | 9.5 | 55.8 |  |  |  |  | increased the number of T cells present in culture | most effective |  | increased the surface expression of CD25
